Test results as given in BindingDB's records for doi:10.1021/jm00079a004 (National Institute of Diabetes and Digestive and Kidney …, 1992).

Biological target: Sigma non-opioid intracellular receptor 1 (Cavia porcellus)
Experiment: Displacement of [3H]-(+) -3PPP from sigma receptor in guinea pig brain membranes

| Ki [nM] | SMILES |
| --- | --- |
| 7.4 | CN(CCc1ccccc1)CCN1CCCC1 |
| 1.4 | C=CCN(CCc1ccc(Cl)c(Cl)c1)CCN1CCCC1 |
| 0.38 | CN(CCN1CCCC1)Cc1ccc(Cl)c(Cl)c1 |
| 1.5 | CN(CCc1ccc(Cl)cc1)CCN1CCCC1 |
| 2.1 | CN(CCc1ccc2ccccc2c1)CCN1CCCC1 |
| 1.8 | CN(CCCN1CCCC1)CCc1ccc(Cl)c(Cl)c1 |
| 1.5 | CC(CN(C)CCc1ccc(Cl)c(Cl)c1)N(C)C (stereo unspecified) |

| SMILES | Ki [nM] |
| --- | --- |
| CCN(CCc1ccc(Cl)c(Cl)c1)CCN1CCCC1 | 0.51 |
| CCN(CC)CCN(C)CCc1ccc(Cl)c(Cl)c1 | 0.73 |
| CN(C)CCNCCc1ccc(Cl)c(Cl)c1 | 20 |
| CNCCN(C)CCc1ccc(Cl)c(Cl)c1 | 5.8 |
